Patent publication US20080249042A1, “All-Trans-Retinol: All-Trans-13,14-Dihydroretinol Saturase and Methods of Its Use” (UNIVERSITY OF WASHINGTON, priority 2004, published 2008)

Key:
mouse RetSat [1] = biological target: T1, mouse RetSat (Mus musculus, UniProt Q64FW2); conditions: earlier report, Moise et al. 2004; cited from earlier work
T1 construct: expressed in transfected cells
T1 sequence (Q64FW2 26-609): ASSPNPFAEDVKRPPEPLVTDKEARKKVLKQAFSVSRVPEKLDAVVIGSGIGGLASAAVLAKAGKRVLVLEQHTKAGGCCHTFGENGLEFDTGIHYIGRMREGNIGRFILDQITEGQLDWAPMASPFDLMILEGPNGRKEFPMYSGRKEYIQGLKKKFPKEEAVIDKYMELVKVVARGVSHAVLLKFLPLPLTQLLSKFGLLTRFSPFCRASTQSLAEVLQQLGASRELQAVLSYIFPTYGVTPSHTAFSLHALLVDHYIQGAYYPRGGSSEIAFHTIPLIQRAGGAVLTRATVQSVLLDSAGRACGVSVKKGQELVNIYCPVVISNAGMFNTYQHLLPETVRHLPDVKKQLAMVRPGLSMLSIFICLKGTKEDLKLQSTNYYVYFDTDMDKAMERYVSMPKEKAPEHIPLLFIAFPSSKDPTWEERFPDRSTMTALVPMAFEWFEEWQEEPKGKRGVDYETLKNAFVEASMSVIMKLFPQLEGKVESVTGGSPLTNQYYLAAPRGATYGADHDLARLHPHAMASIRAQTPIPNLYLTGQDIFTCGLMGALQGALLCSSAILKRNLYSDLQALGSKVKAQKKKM

tomato CRTISO = biological target: T2, tomato CRTISO (Solanum lycopersicum, UniProt Q8S4R4); experiment: CRTISO activity in transfected HEKK cells; assay type: cell-based; conditions: CRTISO-expressing cells, overnight, in the dark
T2 construct: expressed in transfected cells
T2 sequence (Q8S4R4 with tags, fused parts or gaps): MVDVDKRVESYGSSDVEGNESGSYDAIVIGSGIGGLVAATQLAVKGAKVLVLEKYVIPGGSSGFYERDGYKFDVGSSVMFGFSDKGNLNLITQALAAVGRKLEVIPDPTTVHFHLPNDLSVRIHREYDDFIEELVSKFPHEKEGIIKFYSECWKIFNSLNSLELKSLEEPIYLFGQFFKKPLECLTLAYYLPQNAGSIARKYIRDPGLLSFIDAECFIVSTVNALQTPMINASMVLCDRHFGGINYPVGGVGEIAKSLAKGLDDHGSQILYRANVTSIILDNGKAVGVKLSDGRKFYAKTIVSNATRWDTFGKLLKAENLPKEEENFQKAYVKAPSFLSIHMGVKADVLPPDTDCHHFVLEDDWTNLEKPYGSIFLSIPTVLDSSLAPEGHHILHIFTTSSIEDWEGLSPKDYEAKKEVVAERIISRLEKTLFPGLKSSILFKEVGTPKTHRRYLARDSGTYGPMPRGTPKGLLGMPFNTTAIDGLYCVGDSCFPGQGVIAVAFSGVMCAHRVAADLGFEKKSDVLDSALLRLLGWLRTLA
Procedure: 7Z,9Z,9′Z,7′Z-Tetra-cis-tycopene purification and reverse-phase HPLC analysis of carotenoids. Carotenoid extraction and analysis were performed under dim red light. One gram from the fruit of a tangerine tomato was freeze-thawed three times and extracted with 2 ml PBS, 2 ml of ethanol, and 6 ml of hexane with the aid of a douncer. The organic phase was dried and resuspended in ethanol/tetrahydrofuran (9:1), and examined by reverse-phase HPLC System I (Prontosil, 200-3-C30, 3 μm, 4.6 mm×250 mm, Bischoff Chromatography, Leonberg, Germany) with a mobile phase of 75% tert-butyl methyl ether/25% methanol and a flow rate of 1 ml/min. More than 90% of the extract consisted of 7Z,9Z,9′Z,7′Z-tetra-cis-lycopene identified based on its published UV/VIS absorption spectrum in hexane with the following characteristics: shoulder at λ=417 nm, ε=90,000 M^−1cm^−1, λmax=437 nm, ε=105,000 M−1 cm^−1, shoulder at λ=461 nm ε=70,000 M^−1cm^−1. Bradford, Anal Biochem 72:248-254, 1976.
Enzyme assays of RetSat and CRTISO-catalyzed reactions. For enzyme assay, cells were seeded in six-well plates and expression of RetSat or CRTISO was induced with 1 μg/ml tetracycline 48 hr prior to analysis. […] For retinol and dihydroretinol analysis the methanol:water mixture was extracted with two volumes of hexane, then the organic phase was dried, resuspended in hexane, and analyzed by normal-phase HPLC. […]

mouse RetSat [2] = biological target: T1, mouse RetSat; experiment: Saturase activity in homogenized HEKK-RetSat cells; assay type: biochemical; conditions: membrane homogenate, 40 μM substrate, 1 hr
Procedure: Enzymatic assays for saturase activity in homogenized cells. Cells were homogenized with 15 mM Tris-HCl, pH 8.0, containing 10 mM dithiothreitol and 0.32 M sucrose. One aliquot of cells was boiled for 10 min at 95° C. as a negative control. Cell aliquots of 200 μl were supplemented with 1 mM ATP and 40 μM all-trans-retinol final concentrations. Some aliquots were also supplemented with 0.4 mM NADH or 0.4 mM NADPH to regenerate the redox state of the reaction. The cell homogenate was incubated with retinol substrate with shaking at 37° C. for 1 hr in the dark. This was followed by the extraction of retinoids with one volume of methanol and two volumes of hexane. The organic phase was dried and resuspended in hexane and then examined by normal-phase HPLC.

Structure (SMILES) | Saturation by RetSat (mouse RetSat [1]) | Conversion by CRTISO (substrate activity) (tomato CRTISO) | all-trans-13,14-dihydroretinol produced (mouse RetSat [2])
CC1=C(/C=C/C(C)=C/C=C/C(C)=C/C(=O)O)C(C)(C)CCC1 [all-trans-RA, all-trans-retinoic acid, reference compound] | does not saturate |  | 
CC1=C(/C=C/C(C)=C/C=C/C(C)=C/CO)C(C)(C)CCC1 [all-trans-ROL, all-trans-retinol] |  | no saturase activity | little
